Laboratory results taken from patent US20230302159A1, “COMPOUNDS AND COMPOSITIONS FOR TUMOR DETECTION AND SURGICAL GUIDANCE” (Cornell University, priority 2020, published 2023).
Read-outs that look alike come from different tables or passages of the source. Marks after values point to notes of the source that are not given here.

Key:
[1] = Optical properties of the CypH dyes: absorbance maximum and extinction coefficient in EtOH (Table 1); type: physicochemical; conditions: for Ex Coeff (M^−1cm^−1) @ Abs Max: at absorbance maximum
Experimental: (§1) Characterization: All new CypH dyes were characterized by proton NMR and mass spectrometry to confirm identity. NMR data was consistent with the structure and mass spectrometry results gave the expected mass of the dye±0.5 amu. An HPLC method was developed (see below) and used to assess dye purity. […] Retention times on the column generally correlated with lipophilicity of the dyes with water soluble dyes containing sulfate groups eluting out earlier (@10.6 min for CypH-3, 6, 9) than CypH-1 (@11.9 min) and the more lipophilic dyes later. Optical properties of the dyes, acid dissociation constants and solubilities were also determined. Synthetic intermediates were also characterized by proton NMR.

[2] = Solubility of the CypH dyes (Table 1); type: physicochemical
Experimental: as §1

[3] = Fluorescence properties of the CypH dyes at pH 5.0 and pH 7.5 (Table 2); type: physicochemical; conditions: for Ratio Intensity pH 5.0/7.5: fluorescence intensity pH 5.0 over pH 7.5
Source text: The excitation and emission maxima of CypH-1 are 760 and 777 nm, respectively. The signal intensity ratio of pH 5 over pH 7.5 was about 10. The meso-bridge ring size, lipophilicity and electro-density of CypH-1 was modified to provide better optical property. […] The best compound from this group was CypH-5 whose fluorescence ratio of pH 5.0/pH 7.5 was increased to 22. Based on this initial structure and property relationship, the second round of 10 new analogs were designed using CypH-5 as the core, focusing on modifying the electron density on the aniline ring and the indolinium ring. Various alkyl groups, such as methyl, ethyl, propyl, isopropyl and their combinations, were applied to these two positions.
The CypH analogs with other longer alkyl chains had much lower background fluorescence. […] Among them, CypH-11, which has a methyl isopropyl aniline and an isopropyl group on the indolinium ring, gave a 112-fold enhancement in fluorescence signal. CypH-11 has absorbance and emission maxima at 766 nm and 785 nm, respectively (FIG. 4) and was selected as the lead compound (vide infra).

[4] = in water; cited from earlier work
[5] = organic solvent or mixture, in EtOH, read-out: Solubility

| Structure (SMILES) | Ex Coeff (M^−1cm^−1) @ Abs Max [1] | Abs. Max (nm) in EtOH [1] | Solubility [2, 5] [µM] | Ratio Intensity pH 5.0/7.5 [3] | FL Intensity pH 5.0 [3] | FL Max (nm) pH 5.0 [3] [nm] | FL Intensity pH 7.5 [3] | FL Max (nm) pH 7.5 [3] [nm] | Solubility ([2]; in EtOH) [mM in] | Ratio Intensity pH 5.0/7.5 ([3]; listed as 5) | Solubility ([2]; in H2O) [mM in] | quantum yield (Φ) of standard compound [4] [%] |
| --- | --- | --- | --- | --- | --- | --- | --- | --- | --- | --- | --- | --- |
| CCCN1/C(=C/C=C2\CCCC(/C=C/C3=[N+](CCC)c4ccccc4C3(C)C)=C2Oc2ccc(N(C)CC)cc2)C(C)(C)c2ccccc21.[I-] [CypH-18] | 257,300 M^−1cm^−1 | 772 nm |  | 38.2 | 4553 | 792 | 117 | 782 | >1 |  |  |  |
| CCN(C)c1ccc(OC2=C(/C=C/C3=[N+](CC)c4ccccc4C3(C)C)CCC/C2=C\C=C2\N(CC)c3ccccc3C2(C)C)cc1 [CypH-7] | 179,500 M^−1cm^−1 | 764 nm | > 1000 | 27.8 | 5681 | 788 | 204 | 786 |  |  |  |  |
| CCN1/C(=C/C=C2\CCCC(/C=C/C3=[N+](CC)c4ccccc4C3(C)C)=C2Oc2ccc(N(C)C(C)C)cc2)C(C)(C)c2ccccc21 [CypH-10] | 175,400 M^−1cm^−1 | 765 nm | > 1000 | 13.0 | 5380 | 788 | 414 | 781 |  |  |  |  |
| CCN(C)c1ccc(OC2=C(/C=C/C3=[N+](CC(C)C)c4ccccc4C3(C)C)CCC/C2=C\C=C2\N(CC(C)C)c3ccccc3C2(C)C)cc1.[I-] [CypH-20] | 218,600 M^−1cm^−1 | 774 nm |  | 35.1 | 3646 | 794 | 104 | 789 | >1 |  |  |  |
| CCN(C)c1ccc(OC2=C(/C=C/C3=[N+](CCCS(=O)(=O)[O-])c4ccccc4C3(C)C)CCC/C2=C\C=C2\N(CCCS(=O)(=O)[O-])c3ccccc3C2(C)C)cc1.[Na+] [CypH-6] | 150,400 M^−1cm^−1 | 768# nm |  | 10.8 | 4359 | 789 | 405 | 791 |  |  | >1 |  |
| CCCN1/C(=C/C=C2\CCCC(/C=C/C3=[N+](CCC)c4ccccc4C3(C)C)=C2Oc2ccc(N(C)C(C)C)cc2)C(C)(C)c2ccccc21.[I-] [CypH-16] | 248,000 M^−1cm^−1 | 771 nm |  | 26.6 | 4847 | 791 | 182 | 783 | >1 |  |  |  |
| CC(C)CN1/C(=C/C=C2\CCCC(/C=C/C3=[N+](CC(C)C)c4ccccc4C3(C)C)=C2Oc2ccc(N(C)C(C)C)cc2)C(C)(C)c2ccccc21.[I-] [CypH-13] | 218,100 M^−1cm^−1 | 774 nm |  | 35.0 | 4204 | 796 | 120 | 790 | >1 |  |  |  |
| CC1(C)C(/C=C/C=C/C=C/C=C2\N(CCCCS(=O)(=O)O)c3ccc4ccccc4c3C2(C)C)=[N+](CCCCS(=O)(=O)[O-])c2ccc3ccccc3c21 [indocyanine green] |  |  |  |  |  |  |  |  |  |  |  | 1.2 |
| CC(C)N(C)c1ccc(OC2=C(/C=C/C3=[N+](CCCS(=O)(=O)[O-])c4ccccc4C3(C)C)CCC/C2=C\C=C2\N(CCCS(=O)(=O)[O-])c3ccccc3C2(C)C)cc1.[Na+] [CypH-9] | 176,300 M^−1cm^−1 | 769# nm |  | 5.3 | 5125 | 793 | 972 | 789 |  |  | >1 |  |

More lines, main results first:

| Ex Coeff (M^−1cm^−1) @ Abs Max [1] | Abs. Max (nm) in EtOH [1] | Solubility [2, 5] [µM] | Ratio Intensity pH 5.0/7.5 [3] | FL Intensity pH 5.0 [3] | FL Max (nm) pH 5.0 [3] [nm] | FL Intensity pH 7.5 [3] | FL Max (nm) pH 7.5 [3] [nm] | Solubility ([2]; in EtOH) [mM in] | Ratio Intensity pH 5.0/7.5 ([3]; listed as 5) | Solubility ([2]; in H2O) [mM in] | Structure (SMILES) | quantum yield (Φ) of standard compound [4] [%] |
| --- | --- | --- | --- | --- | --- | --- | --- | --- | --- | --- | --- | --- |
| 139,100 M^−1cm^−1 | 764 nm | > 1000 | 30.6 | 4254 | 787 | 139 | 786 |  |  |  | CCN1/C(=C/C=C2\CCCC(/C=C/C3=[N+](CC)c4ccccc4C3(C)C)=C2Oc2ccc(N(C)C)cc2)C(C)(C)c2ccccc21 [CypH-2] |  |
| 215,800 M^−1cm^−1 | 767 nm |  | 5.9 | 5627 | 786 | 958 | 784 | >1 |  |  | CCN(CC)c1ccc(OC2=C(/C=C/C3=[N+](C)c4ccccc4C3(C)C)CCC/C2=C\C=C2\N(C)c3ccccc3C2(C)C)cc1.[Cl-] [CypH-14] |  |
| 269,100 M^−1cm^−1 | 770 nm | > 1000 | 57.3 | 4468 | 791 | 78 | 782 |  |  |  | CCN(C)c1ccc(OC2=C(/C=C/C3=[N+](C(C)C)c4ccccc4C3(C)C)CCC/C2=C\C=C2\N(C(C)C)c3ccccc3C2(C)C)cc1 [CypH-17] |  |
| 240,900 M^−1cm^−1 | 774 nm |  | 68.2 | 3137 | 794 | 46 | 784 | >1 |  |  | CC(C)CN1/C(=C/C=C2\CCCC(/C=C/C3=[N+](CC(C)C)c4ccccc4C3(C)C)=C2Oc2ccc(N(C)C)cc2)C(C)(C)c2ccccc21.[I-] [CypH-19] |  |
| 134,000 M^−1cm^−1 | 762 nm | > 1000 | 22 | 5089 | 786 | 227 | 787 |  | 22.4 |  | CCN(C)c1ccc(OC2=C(/C=C/C3=[N+](C)c4ccccc4C3(C)C)CCC/C2=C\C=C2\N(C)c3ccccc3C2(C)C)cc1 [CypH-5] |  |
| 72,700 M^−1cm^−1 | 777 nm |  | 41.4 | 2816 | 801 | 68 | 791 | >1 |  |  | CCN(C)c1ccc(OC2=C(/C=C/C3=[N+](C)c4ccccc4C3(C)C)CC/C2=C\C=C2\N(C)c3ccccc3C2(C)C)cc1.[Cl-] [CypH-8] |  |
| 251,500 M^−1cm^−1 | 772 nm |  | 53.2 | 4313 | 791 | 81 | 786 | >1 |  |  | CCCN1/C(=C/C=C2\CCCC(/C=C/C3=[N+](CCC)c4ccccc4C3(C)C)=C2Oc2ccc(N(C)C)cc2)C(C)(C)c2ccccc21.[I-] [CypH-15] |  |
| 255,600 M^−1cm^−1 | 767 nm | > 1000 | 8.7 | 4285 | 787 | 493 | 784 |  |  |  | CC(C)N(C)c1ccc(OC2=C(/C=C/C3=[N+](C)c4ccccc4C3(C)C)CCC/C2=C\C=C2\N(C)c3ccccc3C2(C)C)cc1 [CypH-12] |  |
| 58,000 M^−1cm^−1 | 775 nm |  | 23.2 | 1924 | 801 | 83 | 790 | >1 |  |  | CN(C)c1ccc(OC2=C(/C=C/C3=[N+](C)c4ccccc4C3(C)C)CC/C2=C\C=C2\N(C)c3ccccc3C2(C)C)cc1.[Cl-] [CypH-4] |  |
